Measurements taken from patent publication US10266497B2 (ABIDE THERAPEUTICS, INC., priority 2017, dated 2019).

Key:
[1] = target: T1, MAGL (Mus musculus, UniProt O35678); assay: In vitro competitive activity-based protein profiling, MAGL, mouse; details: read-out: MAGL % inh. 1 μM (mouse)
T1 sequence (O35678 1-303): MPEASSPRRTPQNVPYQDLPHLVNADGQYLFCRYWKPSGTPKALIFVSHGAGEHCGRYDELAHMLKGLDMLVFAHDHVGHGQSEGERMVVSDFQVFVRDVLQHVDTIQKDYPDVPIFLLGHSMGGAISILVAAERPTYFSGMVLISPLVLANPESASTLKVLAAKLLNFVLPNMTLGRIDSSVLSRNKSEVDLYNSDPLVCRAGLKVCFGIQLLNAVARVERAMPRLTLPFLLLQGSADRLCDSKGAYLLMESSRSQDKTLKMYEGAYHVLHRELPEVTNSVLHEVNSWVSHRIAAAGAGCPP

[2] = target: T2, MAGL (Homo sapiens, UniProt Q99685); assay: In vitro competitive activity-based protein profiling, MAGL, human; details: for inhibition at 1 µM: read-out: MAGL % inh. 1 μM (human); for inhibition at 10 µM: read-out: MAGL % inh. (human) at 10 uM
T2 sequence (Q99685 1-303): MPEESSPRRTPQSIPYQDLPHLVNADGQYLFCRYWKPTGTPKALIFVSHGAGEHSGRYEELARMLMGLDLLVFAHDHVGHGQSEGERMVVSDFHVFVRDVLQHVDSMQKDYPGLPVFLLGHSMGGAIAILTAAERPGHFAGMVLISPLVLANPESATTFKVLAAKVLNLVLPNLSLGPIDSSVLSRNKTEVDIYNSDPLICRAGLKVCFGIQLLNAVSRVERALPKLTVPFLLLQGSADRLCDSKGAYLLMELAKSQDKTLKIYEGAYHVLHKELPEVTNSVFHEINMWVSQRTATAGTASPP
Procedure: Biological Evaluation In Vitro Competitive Activity-Based Protein Profiling.
Proteomes (mouse brain membrane fraction for mouse assays; human prefrontal cortex membrane fractions for human assays) (50 mL, 1.0 mg/mL total protein concentration) were preincubated with varying concentrations of inhibitors at 37° C. After 30 min, FP-Rh (1.0 mL, 50 mM in DMSO) was added and the mixture was incubated for another 30 min at 37° C. Reactions were quenched with SDS loading buffer (15 μL—4λ) and run on SDS-PAGE.

| Compound | inhibition at 1 µM [1] | inhibition at 1 µM [2] | inhibition at 10 µM [2] |
| --- | --- | --- | --- |
| C[C@@H]1CN(Cc2cccc(Oc3ccc(F)cn3)c2)CCN1C(=O)n1ccc(C(=O)O)n1 [Example 295, (R)-1-(4-(3-((5-fluoropyridin-2-yl)oxy)benzyl)-2-methylpiperazine-1-carbonyl)-1H-pyrazole-3-carboxylic acid] | > 75% | 50 to 75% | – |
| O=C(O)c1nn(C(=O)N2C[C@H]3C[C@H](OCc4cc(F)cc(Cl)c4)C[C@H]3C2)cc1Cl [Example 296, 4-chloro-1-(trans-5-((3-chloro-5-fluorobenzyl)oxy)octahydrocyclopenta [c]pyrrole-2-carbonyl)-1H-pyrazole-3-carboxylic acid] | > 75% | > 75% | – |
| O=C(O)c1ccn(C(=O)N2C[C@H]3C[C@H](Oc4cc(Cl)ccc4C(F)(F)F)C[C@H]3C2)n1 [Example 297, 1-(trans-5-(5-chloro-2-(trifluoromethyl)phenoxy)octahydro-cyclopenta[c]pyrrole-2-carbonyl)-1H-pyrazole-3-carboxylic acid] | > 75% | > 75% | – |
| CN(Cc1cccc(-c2ccccc2)c1)[C@H]1C[C@@H]2CN(C(=O)n3ccc(C(=O)O)n3)C[C@@H]2C1 [Example 298, 1-(trans-5-(([1,1′-biphenyl]-3-ylmethyl)(methyl)amino)octahydrocyc-lopenta[c]pyrrole-2-carbonyl)-1H-pyrazole-3-carboxylic acid] | > 75% | > 75% | – |
| C[C@@H]1CN(Cc2ccc(Cl)c(-c3nccs3)c2)CCN1C(=O)n1ccc(C(=O)O)n1 [Example 299, (R)-1-(4-(4-chloro-3-(thiazol-2-yl)benzyl)-2-methylpiperazine-1-carbonyl)-1H-pyrazole-3-carboxylic acid] | > 75% | > 75% | – |
| NC(=O)c1ccc(Cl)cc1CN1CCC2(CCN(C(=O)n3ccc(C(=O)O)n3)CC2)C1 [Example 300, 1-(2-(2-carbamoyl-5-chlorobenzyl)-2,8-diazaspiro[4.5]decane-8-carbonyl)-1H-pyrazole-3-carboxylic acid] | 0 to 25% | – | > 75% |
| O=C(O)c1ccn(C(=O)N2CCC3(CCN(Cc4cccc(-c5ccccn5)c4)C3)CC2)n1 [Example 301, 1-(2-(3-(pyridin-2-yl)benzyl)-2,8-diazaspiro[4.5]decane-8-carbonyl)-1H-pyrazole-3-carboxylic acid] | 0 to 25% | – | > 75% |
| O=C(O)c1ccn(C(=O)N2CCC3(CCN(Cc4cccc(-c5cncnc5)c4)C3)CC2)n1 [Example 302, 1-(2-(3-(pyrimidin-5-yl)benzyl)-2,8-diazaspiro[4.5]decane-8-carbonyl)-1H-pyrazole-3-carboxylic acid] | 0 to 25% | – | > 75% |
| O=C(O)c1nn(C(=O)N2C[C@H]3C[C@H](Oc4cccc(-c5ccccc5)c4)C[C@H]3C2)cc1Cl [Example 304, 1-(trans-5-([1,1′-biphenyl]-3-yloxy)octahydrocyc-lopenta[c]pyrrole-2-carbonyl)-4-chloro-1H-pyrazole-3-carboxylic acid] | > 75% | > 75% | – |
| O=C(O)c1ccn(C(=O)N2CCC3(CCN(Cc4cccc(-c5nccs5)c4)C3)CC2)n1 [Example 305, 1-(2-(3-(thiazol-2-yl)benzyl)-2,8-diazaspiro[4.5]decane-8-carbonyl)-1H-pyrazole-3-carboxylic acid] | 0 to 25% | 50 to 75% | – |
| Cc1cn(C(=O)N2C[C@H]3C[C@H](OCc4cccc(C(F)(F)F)c4C)C[C@H]3C2)nc1C(=O)O [Example 306, 4-methyl-1-(trans-5-((2-methyl-3-(trifluoromethyl)benzyl)oxy)octa-hydrocyclopenta[c]pyrrole-2-carbonyl)-1H-pyrazole-3-carboxylic acid] | > 75% | > 75% | – |
| C[C@@H]1CN(Cc2cccc(Oc3ccc(Cl)cc3)c2)CCN1C(=O)n1ccc(C(N)=O)n1 [Example 310, (R)-1-(4-(3-(4-chlorophenoxy)benzyl)-2-methylpiperazine-1-carbonyl)-1H-pyrazole-3-carboxamide] | > 75% | > 75% | – |
| O=C(O)c1ccn(C(=O)N2CCC3(CC2)CN(Cc2cc(Cl)ccc2C(F)(F)F)C3)n1 [Example 313, 1-(2-(5-chloro-2-(trifluoromethyl)benzyl)-2,7-diazaspiro[3.5]non-ane-7-carbonyl)-1H-pyrazole-3-carboxylic acid] | > 75% | > 75% | – |
| O=C(O)c1nn(C(=O)N2C[C@H]3C[C@H](OCc4cccc(C(F)(F)F)c4)C[C@H]3C2)cc1Cl [Example 314, 4-chloro-1-(trans-5-((3-(trifluoromethyl)benzyl)oxy)octa-hydrocyclopenta[c]pyrrole-2-carbonyl)-1H-pyrazole-3-carboxylic acid] | > 75% | > 75% | – |
| O=C(O)c1ccn(C(=O)N2C[C@H]3CN(Cc4ccc(Cl)c(-c5nccs5)c4)C[C@H]3C2)n1 [Example 315, 1-((3aR,6aS)-5-(4-chloro-3-(thiazol-2-yl)benzyl)octa-hydropyrrolo[3,4-c]pyrrole-2-carbonyl)-1H-pyrazole-3-carboxylic acid] | > 75% | > 75% | – |
| Cc1cn(C(=O)N2CCC3(CCN(Cc4cc(Cl)cc(Cl)c4)C3)CC2)nc1C(=O)O [Example 316, 1-(2-(3,5-dichlorobenzyl)-2,8-diazaspiro[4.5]decane-8-carbonyl)-4-methyl-1H-pyrazole-3-carboxylic acid] | > 75% | > 75% | – |
| O=C(O)c1ccn(C(=O)N2CCC3(CCN(Cc4cc(Cl)ccc4N4CCC4)C3)CC2)n1 [Example 317, 1-(2-(2-(azetidin-1-yl)-5-chlorobenzyl)-2,8-diazaspiro[4.5]decane-8-carbonyl)-1H-pyrazole-3-carboxylic acid] | > 75% | > 75% | – |
| O=C(O)c1ccn(C(=O)N2C[C@H]3C[C@H](Oc4ccc(Cl)c(-c5nccs5)c4)C[C@H]3C2)n1 [Example 318, 1-(trans-5-(4-chloro-3-(thiazol-2-yl)phenoxy)octa-hydrocyclopenta[c]pyrrole-2-carbonyl)-1H-pyrazole-3-carboxylic acid] | > 75% | > 75% | – |
| O=C(O)c1ccn(C(=O)N2CCN(Cc3cc(F)cc(Oc4ccccc4Cl)c3)CC2)n1 [Example 319, 1-(4-(3-(2-chlorophenoxy)-5-fluorobenzyl)piper-azine-1-carbonyl)-1H-pyrazole-3-carboxylic acid] | > 75% | > 75% | – |
| O=C(O)c1nn(C(=O)N2CCN(Cc3cccc(Oc4ccc(F)cc4)c3)CC2)cc1Cl [Example 320, 4-chloro-1-(4-(3-(4-fluorophenoxy)benzyl)piperazine-1-carbonyl)-1H-pyrazole-3-carboxylic acid] | > 75% | > 75% | – |
| O=C(O)c1ccn(C(=O)N2CCN(Cc3cc(F)cc(Oc4cccc(Cl)c4)c3)CC2)n1 [Example 321, 1-(4-(3-(3-chlorophenoxy)-5-fluorobenzyl)piper-azine-1-carbonyl)-1H-pyrazole-3-carboxylic acid] | > 75% | > 75% | – |
| Cc1c(CN2CCC3(CCN(C(=O)n4ccc(C(=O)O)n4)CC3)C2)cccc1-c1ccccc1 [Example 322, 1-(2-((2-methyl-[1,1′-biphenyl]-3-yl)methyl)-2,8-diazaspiro[4.5]decane-8-carbonyl)-1H-pyrazole-3-carboxylic acid] | > 75% | > 75% | – |
| O=C(O)c1nn(C(=O)N2CCN(Cc3cc(Cl)cc(-c4cncnc4)c3)CC2)cc1Cl [Example 323, 4-chloro-1-(4-(3-chloro-5-(pyrimidin-5-yl)benzyl)piperazine-1-carbonyl)-1H-pyrazole-3-carboxylic acid] | > 75% | > 75% | – |
| O=C(O)c1ccn(C(=O)N2CCC3(CCN(Cc4cccc(Oc5ccccn5)c4)C3)CC2)n1 [Example 324, 1-(2-(3-(pyridin-2-yloxy)benzyl)-2,8-diazaspiro[4.5]decane-8-carbonyl)-1H-pyrazole-3-carboxylic acid] | 0 to 25% | 25 to 50% | – |
| C[C@@H]1CN(Cc2ccc(C(F)(F)F)cc2N2CCCC2)CCN1C(=O)n1ccc(C(N)=O)n1 [Example 325, (R)-1-(2-methyl-4-(2-(pyrrolidin-1-yl)-4-(trifluoromethyl)benzyl)piperazine-1-carbonyl)-1H-pyrazole-3-carboxamide] | > 75% | > 75% | – |
| C[C@H]1CN(Cc2ccc(C(F)(F)F)cc2N2CCCC2)CCN1C(=O)n1ccc(C(N)=O)n1 [Example 326, (S)-1-(2-methyl-4-(2-(pyrrolidin-1-yl)-4-(trifluoromethyl)benzyl)piperazine-1-carbonyl)-1H-pyrazole-3-carboxamide] | > 75% | > 75% | – |
